Laboratory results from the NIST ThermoML archive (doi:10.1016/j.jct.2011.09.022).

Settings: Liquid, Closed cell (Static) method

CC#N [acetonitrile]
Settings | vapor or sublimation pressure [kPa]
278.72 K | 4.443
278.88 K | 4.539
278.98 K | 4.513
279.81 K | 4.732
280.27 K | 4.859
281.91 K | 5.339
283.17 K | 5.637
283.56 K | 5.838
283.81 K | 5.916
284.56 K | 6.102
285.7 K | 6.473
286.17 K | 6.59
286.61 K | 6.754
288.72 K | 7.498
288.8 K | 7.559
288.83 K | 7.594
289.39 K | 7.802
290.09 K | 8.032
290.6 K | 8.302
291.36 K | 8.598
292.48 K | 9.163
293.21 K | 9.408
293.92 K | 9.82
294.4 K | 10.03
295.33 K | 10.43
295.94 K | 10.77
296.44 K | 11.02
297.48 K | 11.6
298.3 K | 12.05
298.67 K | 12.17
299.42 K | 12.61
301.19 K | 13.61
302.14 K | 14.18
304.16 K | 15.57
305.01 K | 16.1
306.04 K | 16.96
306.9 K | 17.53
307.95 K | 18.22
309.92 K | 19.85
310.71 K | 20.49
311.79 K | 21.38
311.88 K | 21.55
312.81 K | 22.5
313.77 K | 23.42
314.79 K | 24.17
315.71 K | 25.1
315.79 K | 25.15
316.63 K | 26.11
317.72 K | 27.21
318.66 K | 28.27
319.69 K | 29.39
320.67 K | 30.52
321.65 K | 31.73
322.54 K | 32.95
322.56 K | 32.94
322.64 K | 33.19
323.64 K | 34.49
324.59 K | 35.65
325.58 K | 37

C1CCOC1 [tetrahydrofuran]
Settings | vapor or sublimation pressure [kPa]
275.99 K | 7.099
276.53 K | 7.556
277.76 K | 7.839
278.19 K | 8.328
279.41 K | 8.614
279.86 K | 9.036
280.16 K | 8.932
281.95 K | 9.957
283.07 K | 10.55
283.15 K | 10.32
283.36 K | 10.9
284.88 K | 11.68
286.55 K | 12.44
288.5 K | 13.79
289 K | 14
289.66 K | 14.48
291.04 K | 15.65
292.31 K | 16.65
293.3 K | 17.43
296.05 K | 19.72
296.84 K | 20.37
297.09 K | 20.65
298.15 K | 21.5
298.72 K | 22.24
300.57 K | 23.84
301.73 K | 25.28
302.96 K | 26.62
303.23 K | 26.87
304.04 K | 27.79
305.35 K | 29.43
306.54 K | 30.77
308.07 K | 32.49
310.2 K | 35.55
310.86 K | 36.65
311.9 K | 38.54
313.12 K | 40.13
313.18 K | 40.09
315.86 K | 44.65
317.71 K | 47.86
319.58 K | 51.31
321.57 K | 55.34
323.59 K | 59.46
